Measured values taken from patent publication US20150132747A1, “Treatment of Neurodegeneration and Neuroinflammation” (BIOGEN IDEC MA INC., priority 2009, published 2015).
Where a name gives a salt, the structure may show the parent alone.

Key:
[1] = test system: primary rat astrocytes; test: Quantitative PCR of gene expression in primary cultured astrocytes, with or without LPS; assay type: cell-based
Description: Rat astrocytes from cortex, hippocampus and striatum (Lonza clontech) were cultured as described by manufacturers protocol. Limiting dilutions of DMF in DMSO were added to cultures for 6 or 24 hours and stimulated with E. Coli LPS (Sigma). RNA was prepared using QIAgen Rneasy method. […] It is also apparent from the data that NQO1 is induced at a higher level by exposure to DMF for 24 hrs compared to induction by a 6 hour exposure. Direct effects of BG00012 on specific astrocytic and microglial cells were tested in vitro using primary rat astrocytes and RAW264.7 macrophage cells.

[2] = test system: Nrf2; test: Nrf2 Western blotting, primary rat astrocytes; assay type: cell-based; conditions: total cell lysates, GAPDH control, FIG. 9
Description: (§1) Total cell lysates were prepared from the astrocyte cultures treated as indicated above. Nrf2 was detected by Western blotting. GAPDH was included as a housekeeping protein control.

[3] = test system: rat EAE (MOG/IFA immunized Brown Norway rats); test: Rat EAE model, clinical score; assay type: in vivo; conditions: FIG. 1A
Description: Female Brown Norway rats (Charles River Laboratories) were immunized intradermally at the base of the tail with MOG 1-125 100 ug/rat in IFA at day 0. Day 3 DMF (BG00012) qd 5, 25, 50, 100, 200 mg/kg delivered orally as a suspension in 0.8% HPMC. N=6 per group. Scoring 0=no disease, 1=tail paralysis, 2=hind limb weakness, 3=hind limb paralysis, 4=hind limb paralysis and forelimb weakness, 5=moribund or dead. Experimental in vivo procedures were performed in accordance with Institutional Animal Committee guidelines crEAE was induced by intradermal MOG/IFA immunization in Brown Norway rats. BG00012 was administered orally at a daily interval beginning three days after immunization. […] For the 100 mg/kg treatment group, average disease score at day 28 was 0.71 (n=6, SD=1.17) compared to 2.29 (n=6, SD=1.29) for the vehicle group.

[4] = test system: Nrf2; test: Nrf2 Western blotting, primary human astrocytes; assay type: cell-based; conditions: total cell lysates, GAPDH control, FIG. 9
Description: as §1

[5] = test system: rat spinal cords (EAE); test: Histology and morphometry of lumbar spinal cord sections of EAE rats (GFAP, IBA-1, Luxol Fast Blue); assay type: in vivo
Description: Lumbar spinal cord sections were prepared as FFPE sections for immunohistochemistry and processed on DAKO autostainer using GFAP antibody (DAKO), IBA-1 (Wako), CD3 (DAKO). Aperio Spectrum Color Deconvolution software was used for morphometric analysis. […] Panels (a) and (b) are from a rat treated with vehicle alone at 5× and 20× magnification, respectively, while panels (c) and (d) are from a rat treated with 100 mg/kg DMF, shown at 5× and 20× magnification, respectively. […] Morphometry analysis of EAE spinal cords was performed with Aperio software. Histological alterations were quantified with Aperio Image Scope software v10.1. The Color Deconvolution algorithm was used to select intensity thresholds either for brown DAB staining (GFAP and IBA-1 Immunostains) or for bright turquoise blue staining (Luxol Fast Blue). Positive staining was determined by the percent of strong positive stained pixels for each intensity threshold. Three lumbar spinal cord sections were quantitated per rat and the values for percent strong positive pixels were averaged for the final intensity value.

[6] = test system: primary astrocytes; test: Gene expression profiling of LPS stimulated primary astrocytes; assay type: cell-based, rat; conditions: LPS 0, 10, 100 ng/ml; DMF 0, 3, 10, 30 μM, FIG. 5
Description: Primary astrocytes were treated with LPS at 0, 10, and 100 ng/ml, as indicated, and also treated with DMF at 0, 3, 10, or 30 μM as indicated. The magnitude of expression of each gene under each condition was scaled from 0 to 1, so that differences in color represent changes in expression of each gene as the conditions varied. The darkest green color represents no detectable expression (0), while the brightest red color represents the highest expression measured for that gene (1). […] The induced expression of many of the markers was suppressed by DMF treatment.
Direct effects of BG00012 on specific astrocytic and microglial cells were tested in vitro using primary rat astrocytes and RAW264.7 macrophage cells.

[7] = test system: primary rat astrocytes; test: Global gene expression analysis (Affymetrix GeneChip) in astrocytes treated with DMF; assay type: cell-based; conditions: p<10^−7 versus untreated astrocytes, FIG. 10
Description: Global analysis of gene expression in astrocytes treated with DMF was performed using the Affymetrix GeneChip technology. […] The resulting gene list was annotated using the Ingenuity IPA database. […] Specific genes involved in cytoprotection and glutathione metabolism, identified in this assay, include, but are not limited to, Gsta2, Gsta3, Gclc, Ggt1, Txnrd1, Srxn1, Sqstm1, and Nqo1.

[8] = test system: human spinal cord astrocytes; test: H2O2 challenge of human spinal cord astrocytes: viability, metabolism, ATP; assay type: cell-based; conditions: FIG. 8C
Description: In another experiment, primary cultures of human spinal cord astrocytes were treated for 24 hr with a titration of MMF or DMSO as a diluent control. Following 24 hr incubation with compound, cells were washed 1× with HBSS and challenged with […] H2O2 for two hours, then washed in normal growth media, then incubated for an additional 24 hours.

[9] = test system: human spinal cord astrocytes; test: Glutathione, metabolic activity and viability of cultured human spinal cord astrocytes; assay type: cell-based; conditions: 24 hr MMF titration, FIG. 6C
Description: Primary cultures of human spinal cord astrocytes were treated for 24 hr with a titration of MMF or DMSO as a diluent control. Following 24 hr incubation with compound, cells were washed 1× with growth media and incubated with the cell-permeant substrate monochlorobimane. When bound to glutathione this substrate increases fluorescence. […] FIG. 6A. Similar MMF treated cells were also incubated with the cell permeant substrate resazurin, which increases fluorescence upon reduction to resorufin by cellular redox mechanisms and is used as a measure of cellular metabolic activity (CellTiter-Blue assay). […] FIG. 6B. To ensure the increases in glutathione and metabolic activity were not simply due to cellular proliferation in response to MMF treatment, parallel dishes of cells were incubated with calcein AM. Cellular esterases cleave this molecule to generate a fluorescent metabolite, which provides a measure of cell viability and relative total cell numbers. […] FIG. 6C.

[10] = test system: human spinal cord astrocytes; test: H2O2-induced Ca++ mobilization in human spinal cord astrocytes (Calcium4 dye); assay type: cell-based; conditions: Astrocyte, 24 hr MMF, 50 mM H2O2, FIG. 7C, read-out: EC50, protection against H2O2-induced Ca++ mobilization (non-linear regression)
Description: In another experiment, primary cultures of human spinal cord astrocytes were treated for 24 hr with a titration of MMF or DMSO as a diluent control. Following 24 hr incubation with compound, cells were washed 1× with HBSS and incubated with Calcium4 (Molecular Devices) loading dye. This dye permeates into cells and increases fluorescence upon binding of free intracellular Ca^++. Cells were then challenged with 50 mM H2O2 and monitored for changes in fluorescence. […] FIG. 7C.

Compound | LPS induced TNF expression (quantitative PCR) ([1]; DMF 24 hours, LPS 0, 10, 30 ng/ml 4 hrs prior to harvest, FIG. 4B) | GFAP expression (quantitative PCR) ([1]; DMF for 6 hrs and 24 hrs, FIG. 4A) | NQO1 expression (quantitative PCR) ([1]; DMF for 6 hrs and 24 hrs, FIG. 4C) | levels of Nrf2 (Western blotting), primary rat astrocytes [2] | EAE disease ([3]; 200 mg/kg) | EAE symptoms ([3]; various doses (5-200 mg/kg qd oral from day 3)) | levels of Nrf2 (Western blotting), primary human astrocytes [4] | activated astrocytes in grey matter of spinal cords (GFAP antibody) ([5]; 100 mg/kg DMF versus vehicle alone, FIG. 3) | myelin loss during EAE in rat spinal cords (Luxol Fast Blue morphometry) ([5]; FIG. 12) | LPS-induced expression of Ccl20, Ccl3, Ccl4, Cxcl1, Cxcl10, Cxcl2, Cxcl3, Cxcl6, IL1a, II1b, Tnf, Ifit3, Zc3h12a [6] | expression of Nrf2 target genes (incl. glutathione metabolism genes) [7] | cellular ATP levels at the highest concentration of MMF [8] | cell viability and relative total cell numbers (calcein AM) [9] | EC50 [10]
COC(=O)/C=C/C(=O)OC [DMF, dimethyl fumarate] | repressed by DMF in a dose dependent manner | inhibits GFAP expression in a concentration dependent manner | induces NQO1 expression in a concentration dependent manner | increase levels of Nrf2 | completely abrogated disease | reduced EAE symptoms in a dose-dependent manner | increase levels of Nrf2 | fewer activated astrocytes | diminishes myelin loss | strongly suppressed | activates expression of Nrf2 target genes |  |  | 
COC(=O)/C=C/C(=O)O [MMF, monomethyl fumarate] |  |  |  |  |  |  |  |  |  |  |  | appeared to reduce cellular ATP levels | No substantial concentration-dependent changes | 5.4 µM
